Data published in patent US9927437B2, “Treating neurodegenerative disease” (THE BRIGHAM AND WOMEN'S HOSPITAL, INC., priority 2013, dated 2018).
“Also recorded” adds a separate entry of the source.

How the values were obtained:
human primary astrocytes = experiment: Activation of human primary astrocytes with IL-1β or poly(I:C), qPCR; type: cell-based; settings: PDMP 25 μM; IL-1β 10 ng/ml or Poly (I:C) 10 μg/ml, 6 h
Excerpt: FIG. 6a-d. […] Autopsy samples were obtained from lesions (n=10) or NAWM (n=5) from MS, non-MS CNS inflammatory diseases (NMSCID, including viral encephalitis, Rasmussen's encephalitis and ADEM, n=5) patients and healthy controls (n=6). (a) qPCR analysis of B4GALT5 and B4GALT6 mRNA expression in CNS samples relative to ACTB. (b) IF analysis of B4GALT6, CCL2 and iNOS in GFAP+ astrocytes in NAWM and Lesion of MS patients. (c) LacCer levels determined in CNS samples, relative to protein content. Statistical analysis by one-way ANOVA, followed by Tukey post-hoc analysis. (d) Primary human astrocytes were pre-treated with PDMP (25 μM) or vehicle, and activated with IL-1β (10 ng/ml) or Poly (I:C) (10 μg/ml) or left untreated (control). RNA was harvested 6 h later and the expression of CCL2, CCL5, COX2, IL6, NOS2, and TLR2 was analyzed by qPCR relative to ACTB in 3 independent experiments. Statistical analysis by Student's t-test. Data presented are mean and s.e.m. *P<0.05, **P<0.01 and ***P<0.001.
Human fetal astrocytes were isolated as previously described^57 from human CNS tissue from fetuses at 17-23 wk of gestation obtained from the Human Fetal Tissue Repository (Albert Einstein College of Medicine, Bronx, N.Y.) following Canadian Institutes for Health Research-approved guidelines. Cultures were >90% pure.

inflammatory monocytes = experiment: Recruitment of inflammatory monocytes to the CNS of EAE NOD mice (flow cytometry); type: in vivo, mouse; settings: PDMP as in FIG. 1k, CD11b+Ly6C^high or CD11b+CD45^high
[1] = system: Naïve C57BL/6 and NOD mice; experiment: LacCer administration to naïve mice without MOG immunization; type: in vivo; settings: 10 μg per mouse, absence of MOG immunization
Protocol: FIGS. 12a-i. […] (a) Naïve C57BL/6 (Left panel) and NOD (right panel) mice were treated with LacCer (10 μg per mouse) or vehicle as indicated by red arrows, and EAE clinical scores was recorded. At experimental end point (day 25), astrocytes were isolated and their transcriptional profile was determined by nCounter Nanostring analysis. (b-e) EAE was induced in C57BL/6 (b, c) or NOD mice (d, e) and LacCer or vehicle were administrated as in FIGS. 1g and 1h, respectively. Splenic T-cell recall response to MOG(35-55) (20 μg/ml); proliferation (b, d) and secretion of IL-17A, IFN-γ and IL-10 cytokines (c, e). Data are representative of two independent experiments with ≥8 mice/group (mean and s.e.m.). (f-i) EAE NOD mice were treated with PDMP or vehicle during the chronic phase as in FIG. 1K. Data are representative of three independent experiments with n≥8 mice/group (mean and s.e.m.). (f) qPCR analysis of the expression of tbx21, ifng, rorc, il17A, csf2, il10, foxp3, and tgfb1 mRNA of CD3^+CD4^+ T-cells isolated from the CNS; expression is presented relative to gapdh. (g, h) Recall response to MOG(35-55) (20 μg/ml); proliferation (g) and secretion of IL-17A, IFN-γ and IL-10 cytokines (h). (i) Expression of IFN-γ, IL-17A, Foxp3 and IL-10 by splenic CD3^+CD4^+ T cells (mean and s.e.m.).

[2] = system: leptomeningeal phagocytes; experiment: Transcriptional response of leptomeningeal phagocytes to LPS/IFNγ; type: cell-based, mouse; settings: LacCer 10 μM 1 h, LPS/IFNγ 6 h
Protocol: (§1) FIGS. 15a-b. […] Leptomeningeal phagocytes (a) and choroid plexus cells (b) were pre-treated for 1 h with LacCer (10 μM), or vehicle control (vehicle), followed by activation with LPS/IFNγ for 6 h, or left un-treated (control, Con). mRNA expression was determined by nCounter Nanostring analysis. Representative data of two independent experiments.
The meninges were carefully stripped from the brains of 1- to 3-day-old neonatal mice, and digested with 1% collagenase for 20 min at 37° C., and then dispersed into a single-cell level. Isolated cells, were incubated with anti-mouse CD16/CD32 for 15 min on ice to block the Fc receptors, and stained with APC-conjugated antibody for CD11b (M1/70) for 30 min at 4° C. Cells were washed, incubated with 7-AAD for exclusion of dead cells, and sorted.

choroid plexus cells = experiment: Transcriptional response of choroid plexus cells to LPS/IFNγ; type: cell-based, mouse; settings: LacCer 10 μM 1 h, LPS/IFNγ 6 h
Protocol: as §1
Mouse primary choroid plexus cells were prepared as described^55,56 with minor modifications. In brief, the choroid plexus was removed from 1- to 3-day-old neonatal mice, digested with 1% collagenase for 20 min at 37° C., and then dispersed into a single-cell level. The cell suspension was washed in culture medium for choroid plexus cells [Dulbecco's modified Eagle medium/Ham's F12 (Invitrogen) supplemented with 10% foetal calf serum (Sigma-Aldrich), 1 mM 1-glutamine, 1 mM sodium pyruvate, 100 U/ml penicillin, […] streptomycin, […] insulin, […] Ara-C) and cultured (2.5×10^5 cells/well) at 37° C., 5% CO2 in poly-D-lysine coated 24-well plates. After 24 h, the medium was changed, and the cells were either left untreated or treated as described.

C57BL/6 mice = experiment: EAE in C57BL/6 mice; type: in vivo; settings: 10 μg per mouse with MOG35-55 at induction and i.p. every 3 days
C8-D30 astrocytes = experiment: In vitro knock-down with shRNA in C8-D30 astrocytes, LPS/IFNγ activation; type: cell-based, mouse; settings: lentivirus-delivered shRNA

CCCCCCCCCC(=O)N[C@H](CN1CCOCC1)[C@H](O)c1ccccc1 [PDMP, D-threo-1-phenyl-2-decanoylamino-3-morpholino-1-propanol]
CCL2, CCL5, COX2, IL6, NOS2 and TLR2 expression (human primary astrocytes): significant decrease
frequency of inflammatory monocytes recruited to the CNS (inflammatory monocytes): significantly reduced
total numbers of inflammatory monocytes recruited to the CNS (inflammatory monocytes): significantly reduced

lactosylceramide [LacCer]
induction of EAE-like disease [1]: did not result in the induction of EAE-like disease
transcriptional response to activation of leptomeningeal phagocytes [2]: did not affect the transcriptional response; also recorded: does not affect the transcriptional response
transcriptional response to activation of choroid plexus cells (choroid plexus cells): did not affect the transcriptional response; also recorded: does not affect the transcriptional response
EAE clinical scores (C57BL/6 mice): significant worsening of EAE

shB4galt6: lentivirus-delivered shRNA against b4galt6 (TRCN0000334278; SEQ ID NO:3) (guide CGATGGACTGAACAATTTATTCTCGAGAATAAATTGTTCAGTCCACG)
up-regulation of h2-Aa, ccl5 and cxcl10 expression (C8-D30 astrocytes): significantly suppressed the up-regulation
